# Earlier results in patent publication US20050152989A1, “Method for treating irritable bowel syndrome” (Braintree Laboratories, Inc., priority 2003, published 2005).
# Experiments:
# [1] = test system: constipation-predominant IBS; conditions: Case Study 2, patient history before the formulation
smiles,measurement,setting,value
Cc1[nH]cnc1CN1CCc2c(c3ccccc3n2C)C1=O [alosetron],toxicity limiting use,IBS; diarrhea-predominant IBS,severely limited by its toxicity
[H]/N=C(/NCCCCC)N/N=C/c1c[nH]c2ccc(OC)cc12 [tegaserod],patients with significant improvement in IBS symptoms compared with placebo,IBS; constipation-predominant IBS,about one of eight
COc1cc(N)c(Cl)cc1C(=O)NC1CCN(CCCOc2ccc(F)cc2)CC1OC (stereo not drawn) [cisapride],outcome of earlier treatment regimens tried by the patient,[1],without success
